From patent US20240124504A1, “AROMATIC HETEROCYCLIC COMPOUND, AND PHARMACEUTICAL COMPOSITION AND APPLICATION THEREOF” (GT APEIRON THERAPEUTICS LIMITED, priority 2020, published 2024)

Assays:
[1] = target: CDK7/cyclinH/MAT1 complex (Homo sapiens, UniProt P50613); assay: In-vitro enzymatic inhibitory activity testing, CDK7 inhibition assay (Caliper EZ Reader II); format: biochemical; settings: CDK7/cyclinH/MAT1 6 nM, 180 min at 27° C.
Experimental: (§1) CDK12/CyclinK was diluted in an assay buffer (80 mM MES PH 6.5, 0.01% Tween 20, 50 ug/mL BSA, 10 mM MgCl2) to afford a corresponding enzyme solution with the 2.4 concentration. A compound was dissolved in dimethyl sulfoxide (DMSO) at a concentration of 10 mM. […] 2 ul of a test compound solution was mixed with 5 ul of the enzyme solution; after incubation for 10 min, 5 ul of the polypeptide substrate and ATP mixed solution was added; incubation was carried out for 180 min at 27° C.; and then, the reaction was terminated by adding 4 uL of EDTA with a concentration of 120 mM to each sample. […] A CDK9/cyclinT1 complex (8 nM) and a “5-FAM-CDK9tide” peptide substrate (2 IM, synthetic fluorophore-labeled peptide with the following sequence: 5-FAM-GSRTPMY-NH2, wherein 5-FAM was as defined above and NH2 represented C-terminal amide) were used for a CDK9 inhibition assay. […] A CDK2/cyclinE1 complex (0.5 nM) and “5-FAM-CDK7tide” (2 μM) as defined above were used for CDK2 inhibition assay.
(§2) A reaction mixture was analyzed on Caliper EZ Reader II by electrophoretic separation of a fluorogenic substrate and a phosphorylated product. Data were calculated by using GraphPad Prism version 6.0, and IC50 values were adjusted and obtained by using a nonlinear regression model of a dose response curve.

[2] = target: CDK2/cyclinE1 complex (Homo sapiens, UniProt P24941); assay: In-vitro enzymatic inhibitory activity testing, CDK2 inhibition assay (Caliper EZ Reader II); format: biochemical; settings: CDK2/cyclinE1 0.5 nM, 180 min at 27° C.
Experimental: CDK12/CyclinK was diluted in an assay buffer (80 mM MES PH 6.5, 0.01% Tween 20, 50 ug/mL BSA, 10 mM MgCl2) to afford a corresponding enzyme solution with the 2.4 concentration. […] A CDK9/cyclinT1 complex (8 nM) and a “5-FAM-CDK9tide” peptide substrate (2 IM, synthetic fluorophore-labeled peptide with the following sequence: 5-FAM-GSRTPMY-NH2, wherein 5-FAM was as defined above and NH2 represented C-terminal amide) were used for a CDK9 inhibition assay. […] A CDK2/cyclinE1 complex (0.5 nM) and “5-FAM-CDK7tide” (2 μM) as defined above were used for CDK2 inhibition assay.
as §2

[3] = target: CDK9/cyclinT1 complex (Homo sapiens, UniProt P50750); assay: In-vitro enzymatic inhibitory activity testing, CDK9 inhibition assay (Caliper EZ Reader II); format: biochemical; settings: CDK9/cyclinT1 8 nM, 180 min at 27° C.
CDK9/cyclinT1 complex, sequence (P50750 whole entry, species assumed): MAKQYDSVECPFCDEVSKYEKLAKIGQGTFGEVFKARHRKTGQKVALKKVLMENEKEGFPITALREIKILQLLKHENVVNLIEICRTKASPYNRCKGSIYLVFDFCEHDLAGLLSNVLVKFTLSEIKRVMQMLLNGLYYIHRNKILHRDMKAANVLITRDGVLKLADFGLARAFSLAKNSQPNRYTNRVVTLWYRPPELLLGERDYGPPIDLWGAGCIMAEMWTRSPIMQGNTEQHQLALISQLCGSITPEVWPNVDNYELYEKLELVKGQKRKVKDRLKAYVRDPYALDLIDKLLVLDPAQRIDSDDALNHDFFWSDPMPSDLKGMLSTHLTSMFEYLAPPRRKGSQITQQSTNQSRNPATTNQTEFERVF
CDK9/cyclinT1 complex, sequence (O60563 whole entry partner, species assumed): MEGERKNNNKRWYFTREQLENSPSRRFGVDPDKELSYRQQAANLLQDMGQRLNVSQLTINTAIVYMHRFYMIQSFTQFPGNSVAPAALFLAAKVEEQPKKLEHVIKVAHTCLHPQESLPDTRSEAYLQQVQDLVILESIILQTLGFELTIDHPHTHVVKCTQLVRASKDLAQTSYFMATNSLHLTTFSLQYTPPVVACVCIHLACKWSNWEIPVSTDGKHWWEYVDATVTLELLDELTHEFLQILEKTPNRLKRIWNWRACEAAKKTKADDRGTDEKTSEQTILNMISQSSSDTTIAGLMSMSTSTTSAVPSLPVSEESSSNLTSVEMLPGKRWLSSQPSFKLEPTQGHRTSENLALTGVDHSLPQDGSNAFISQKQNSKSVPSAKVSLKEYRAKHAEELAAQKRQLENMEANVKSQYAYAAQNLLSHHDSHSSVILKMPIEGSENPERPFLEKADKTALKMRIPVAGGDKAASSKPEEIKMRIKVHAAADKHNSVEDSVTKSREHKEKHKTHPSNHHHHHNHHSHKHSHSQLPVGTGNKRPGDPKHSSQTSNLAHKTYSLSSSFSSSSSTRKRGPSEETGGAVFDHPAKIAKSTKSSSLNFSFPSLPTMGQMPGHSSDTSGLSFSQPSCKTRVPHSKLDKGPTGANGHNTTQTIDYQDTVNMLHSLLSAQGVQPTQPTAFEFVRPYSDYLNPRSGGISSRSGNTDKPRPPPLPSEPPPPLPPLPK
Experimental: as §1, §2

[4] = target: T1, CDK12 (aa686-1082)/cyclinK complex (Homo sapiens, UniProt Q9NYV4); assay: In-vitro enzymatic inhibitory activity testing, CDK12 inhibition assay (Caliper EZ Reader II); format: biochemical; settings: CDK12/cyclinK 50 nM, 180 min at 27° C.; read-out: CDK12 IC50
T1 construct: A CDK12 (aa686-1082)/cyclinK complex (50 nM)
T1 sequence (Q9NYV4 686-1082, species assumed): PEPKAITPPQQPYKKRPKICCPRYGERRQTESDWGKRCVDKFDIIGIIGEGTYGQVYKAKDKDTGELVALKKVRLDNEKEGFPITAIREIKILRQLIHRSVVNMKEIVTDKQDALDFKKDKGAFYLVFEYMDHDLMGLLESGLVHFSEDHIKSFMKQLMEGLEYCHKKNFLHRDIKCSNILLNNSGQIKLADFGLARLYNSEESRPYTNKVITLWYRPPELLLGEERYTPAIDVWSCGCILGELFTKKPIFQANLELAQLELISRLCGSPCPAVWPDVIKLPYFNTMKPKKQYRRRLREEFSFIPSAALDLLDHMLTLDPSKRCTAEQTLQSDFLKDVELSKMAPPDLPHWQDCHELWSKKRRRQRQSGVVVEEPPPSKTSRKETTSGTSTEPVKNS
T1 sequence (O75909 whole entry partner, species assumed, the tested form may be a part): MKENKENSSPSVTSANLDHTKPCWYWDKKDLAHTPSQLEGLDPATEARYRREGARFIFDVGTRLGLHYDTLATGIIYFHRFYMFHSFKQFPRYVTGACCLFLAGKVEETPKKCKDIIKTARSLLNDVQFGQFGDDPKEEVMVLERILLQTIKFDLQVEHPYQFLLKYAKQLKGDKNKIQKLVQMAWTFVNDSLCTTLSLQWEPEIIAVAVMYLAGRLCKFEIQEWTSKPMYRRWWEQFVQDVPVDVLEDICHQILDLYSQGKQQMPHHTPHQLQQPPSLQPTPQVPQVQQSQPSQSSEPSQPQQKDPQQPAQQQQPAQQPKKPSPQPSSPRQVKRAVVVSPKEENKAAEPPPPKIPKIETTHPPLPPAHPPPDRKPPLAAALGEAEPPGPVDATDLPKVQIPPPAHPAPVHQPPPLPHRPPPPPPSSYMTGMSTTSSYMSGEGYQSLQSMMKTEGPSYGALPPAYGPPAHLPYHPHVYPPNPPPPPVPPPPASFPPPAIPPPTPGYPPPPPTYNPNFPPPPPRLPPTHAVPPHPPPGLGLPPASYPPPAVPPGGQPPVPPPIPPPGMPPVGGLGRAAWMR
Experimental: An assay was carried out in a U-bottom 384-well plate (coming, 4512#), and the reaction temperature was 27° C. CDK7/CyclinH was diluted in an assay buffer (20 mM MES PH 6.75, 0.01% Tween 20, 50 ug/mL BSA, 6 mM MgCl2) to afford a corresponding enzyme solution with the 2.4× concentration. CDK2/CyclinE1 was diluted in an assay buffer (20 mM MES PH 6.75, 0.01% Tween 20, 50 ug/mL BSA, 6 mM MgCl2) to afford a corresponding enzyme solution with the 2.4× concentration. CDK9/CyclinT1 was diluted in an assay buffer (20 mM MES PH 6.75, 0.01% Tween 20, 50 ug/mL BSA, 10 mM MgCl2) to afford a corresponding enzyme solution with the 2.4× concentration. CDK12/CyclinK was diluted in an assay buffer (80 mM MES PH 6.5, 0.01% Tween 20, 50 ug/mL BSA, 10 mM MgCl2) to afford a corresponding enzyme solution with the 2.4 concentration. A compound was dissolved in dimethyl sulfoxide (DMSO) at a concentration of 10 mM. During use, the compound was diluted with DMSO into 10 concentration gradients from 25 nM to 500 uM, and respectively diluted by 8.3 folds in the assay buffer to afford a compound solution with a 6× concentration. A polypeptide substrate and ATP were diluted in the assay buffer to afford a polypeptide substrate and ATP mixed solution with a 2.4× concentration. 2 ul of a test compound solution was mixed with 5 ul of the enzyme solution; after incubation for 10 min, 5 ul of the polypeptide substrate and ATP mixed solution was added; incubation was carried out for 180 min at 27° C.; and then, the reaction was terminated by adding 4 uL of EDTA with a concentration of 120 mM to each sample. […]. Specifically, a CDK7/cyclinH/MAT1 complex (6 nM) and a “5-FAMCD K 7 tide” peptide substrate (2 μM, synthetic fluorophore-labeled peptide with the following sequence: 5-FAM-[…], wherein “5-FAM” refers to 5-carboxyfluorescein) were used for a CDK7 inhibition assay. A CDK9/cyclinT1 complex (8 nM) and a “5-FAM-CDK9tide” peptide substrate (2 IM, synthetic fluorophore-labeled peptide with the following sequence: 5-FAM-GSRTPMY-NH2, wherein 5-FAM was as defined above and NH2 represented C-terminal amide) were used for a CDK9 inhibition assay. A CDK12 (aa686-1082)/cyclinK complex (50 nM) and “5-FAM-CDK9tide” (2 μM) as defined above were used for a CDK12 inhibition assay. A CDK2/cyclinE1 complex (0.5 nM) and “5-FAM-CDK7tide” (2 μM) as defined above were used for CDK2 inhibition assay.
as §2

[5] = system: human breast cancer cells HCC70; assay: Cell biological activity detection (CyQuant, 72 hours), HCC70; format: cell-based; settings: incubation for 72 hours
Experimental: (§3) A2780 and HCC70 cells were subjected to trypsin digestion treatment, and cell suspensions were respectively transferred to 15 mL centrifuge tubes and centrifuged for 5 min at […]) rpm; supernatant was discarded, and resuspension was carried out in a fresh medium (RPMI 1640+10% FBS), after counting, cells were seeded into a 384-well plate at 2000/well (50 μL of 1640+10% FBS medium was added to the 2nd column and the 23rd column of the 384-well plate, and 50 μL of DPBS was added to the surrounding wells). Incubation was carried out overnight in an incubator (37° C., 5% CO2).
(§4) The compound was added to the well plates the next day. The compound had the highest concentration of 10 μM and was diluted at 1:4, and there were a total of 9 concentrations; and a positive compound Paclitaxel had the highest concentration of 1 μM and was diluted at 1:3, and there were a total of 9 concentrations. The DMSO content in each well was unified to 0.2%. The cell plates were centrifuged for 30 seconds at 800 rpm and placed in an incubator (37° C., 5% CO2) for incubation for 72 hours. On the fourth day, a Cyquant reagent (3×) was formulated according to kit instructions, and formulation was carried out for each 384-well plate according to the following proportions: DPBS 11.568 mL, CyQuant®? Direct nucleic acid stain 72 μL, and CyQuant® Direct background suppressor 360 μL. After uniform mixing, the reagent was placed at room temperature for further use. The cell plates were taken out and equilibrated for 30 min at room temperature, and 25 μL of the Cyquant reagent (3×) per well was dispensed into the cells of the 384-well plates by Multi-drop, and incubation was carried out for more than 60 minutes at 37° C. Acumen plate reading (Acumen setting: an excitation wavelength of 488 nm). IC50 results were analyzed by XLFIT5 from IDBS Company.

[6] = system: ovarian cancer A2780; assay: Cell biological activity detection (CyQuant, 72 hours), A2780; format: cell-based, human; settings: A2780 cells, incubation for 72 hours
Experimental: as §3, §4

CDK7/cyclinH/MAT1 complex, sequence (P50613 whole entry, species assumed): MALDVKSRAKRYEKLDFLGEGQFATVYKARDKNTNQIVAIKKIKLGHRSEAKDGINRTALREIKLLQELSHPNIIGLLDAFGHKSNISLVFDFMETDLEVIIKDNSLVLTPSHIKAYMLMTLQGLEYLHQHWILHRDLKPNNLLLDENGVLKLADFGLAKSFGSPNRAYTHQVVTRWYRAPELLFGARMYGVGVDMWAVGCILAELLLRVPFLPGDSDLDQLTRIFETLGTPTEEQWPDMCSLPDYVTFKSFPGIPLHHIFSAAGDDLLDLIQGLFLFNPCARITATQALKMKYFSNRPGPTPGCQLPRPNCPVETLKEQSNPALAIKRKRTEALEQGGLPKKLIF
CDK7/cyclinH/MAT1 complex, sequence (P51946 whole entry partner, species assumed): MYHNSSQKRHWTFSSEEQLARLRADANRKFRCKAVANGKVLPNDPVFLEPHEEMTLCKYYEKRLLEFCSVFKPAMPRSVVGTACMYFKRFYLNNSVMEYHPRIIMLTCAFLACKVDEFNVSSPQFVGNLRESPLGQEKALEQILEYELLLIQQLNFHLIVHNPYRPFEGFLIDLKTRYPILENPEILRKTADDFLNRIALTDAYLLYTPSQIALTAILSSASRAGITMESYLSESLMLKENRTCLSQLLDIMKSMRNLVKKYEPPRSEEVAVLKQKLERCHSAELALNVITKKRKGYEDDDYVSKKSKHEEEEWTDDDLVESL
CDK7/cyclinH/MAT1 complex, sequence (P51948 whole entry partner, species assumed): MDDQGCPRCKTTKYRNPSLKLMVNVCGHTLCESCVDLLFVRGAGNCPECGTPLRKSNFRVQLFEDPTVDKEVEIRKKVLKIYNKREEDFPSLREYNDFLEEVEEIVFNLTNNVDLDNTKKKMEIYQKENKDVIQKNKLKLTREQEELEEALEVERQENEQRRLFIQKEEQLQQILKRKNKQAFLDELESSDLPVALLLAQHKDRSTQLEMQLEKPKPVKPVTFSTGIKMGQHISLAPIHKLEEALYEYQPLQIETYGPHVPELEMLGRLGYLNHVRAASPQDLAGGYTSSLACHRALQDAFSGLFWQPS

| IC50 [1] | IC50 [2] | IC50 [3] | IC50 [4] | IC50 [6] | IC50 ([6]; Homo sapiens, A2780, 72 h) | Structure (SMILES) | IC50 [5] | IC50 ([5]; Homo sapiens, HCC70, 72 h) |
| --- | --- | --- | --- | --- | --- | --- | --- | --- |
| < 20 nM | 5 to 50 µM | > 50 µM | 5 to 50 µM | < 20 nM |  | CP(C)(=O)c1cccc2c(-c3nc(NC4CC45CCNC5)ncc3C(F)(F)F)c[nH]c12 (single isomer, unassigned) [Compound 110] | 20 to 200 nM |  |
| 20 to 200 nM | 5 to 50 µM | > 50 µM | > 50 µM | < 20 nM |  | CP(C)(=O)c1cccc2c(-c3nc(NC4CC45CCNC5)ncc3C(F)(F)F)c[nH]c12 (single isomer, unassigned) [Compound 111] | 20 to 200 nM |  |
| 20 to 200 nM | 5 to 50 µM | > 50 µM | > 50 µM |  | 200 to 5000 nM | CP(C)(=O)c1cccc2c(-c3nc(NCC4(O)CCOC4)ncc3C(F)(F)F)c[nH]c12 (single isomer, unassigned) [Compound 121] |  | 20 to 200 nM |
| 20 to 200 nM | 5 to 50 µM | > 50 µM | > 50 µM | 200 to 5000 nM |  | CP(C)(=O)c1cccc2c(-c3nc(NCC4(O)CCOC4)ncc3C(F)(F)F)c[nH]c12 (single isomer, unassigned) [Compound 122] | 20 to 200 nM |  |
| < 20 nM | 5 to 50 µM | > 50 µM | > 50 µM | 20 to 200 nM |  | CP(C)(=O)c1cccc2c(-c3nc(NCC(O)C(F)F)ncc3C(F)(F)F)c[nH]c12 (single isomer, unassigned) [Compound 124] |  | 20 to 200 nM |
| 20 to 200 nM | 5 to 50 µM | > 50 µM | > 50 µM | 200 to 5000 nM |  | CP(C)(=O)c1cccc2c(-c3nc(NCC(O)C(F)F)ncc3C(F)(F)F)c[nH]c12 (single isomer, unassigned) [Compound 125] | 20 to 200 nM |  |
| < 20 nM | 0.2 to 5 µM | 5 to 50 µM | 0.2 to 5 µM |  | < 20 nM | CN(C)CC1CCCC1Nc1ncc(C(F)(F)F)c(-c2c[nH]c3c(P(C)(C)=O)cccc23)n1 (single isomer, unassigned) [Compound 135] |  | < 20 nM |

Continued, compound first:

| Structure (SMILES) | IC50 [1] | IC50 [2] | IC50 [3] | IC50 [4] | IC50 [6] | IC50 ([6]; Homo sapiens, A2780, 72 h) | IC50 [5] | IC50 ([5]; Homo sapiens, HCC70, 72 h) |
| --- | --- | --- | --- | --- | --- | --- | --- | --- |
| FC(F)(F)c1cnc(NC2CCCNCC2)nc1-c1c[nH]c2nc(N3CCOCC3)ccc12 (single isomer, unassigned) [Compound 49] | 200 to 5000 nM | 5 to 50 µM | > 50 µM | 5 to 50 µM | 200 to 5000 nM |  | 200 to 5000 nM |  |
| FC(F)(F)c1cnc(NC2CCC3CNCC32)nc1-c1c[nH]c2nc(N3CCOCC3)ccc12 (single isomer, unassigned) [Compound 57] | 200 to 5000 nM | > 50 µM | > 50 µM | > 50 µM | 200 to 5000 nM |  | 200 to 5000 nM |  |
| CC1(C)COCC(Nc2ncc(C(F)(F)F)c(-c3c[nH]c4nc(C#N)ccc34)n2)CN1 (single isomer, unassigned) [Compound 63] | 20 to 200 nM | > 50 µM | > 50 µM | 5 to 50 µM |  | 200 to 5000 nM |  | 200 to 5000 nM |
| CC1(C)COC[C@@H](Nc2ncc(C(F)(F)F)c(-c3c[nH]c4nc(C#N)ccc34)n2)CN1 (single isomer, unassigned) [Compound 64] | 20 to 200 nM | > 50 µM | > 50 µM | 5 to 50 µM |  | 200 to 5000 nM |  | 200 to 5000 nM |
| CC1(C)COCC(Nc2ncc(C(F)(F)F)c(-c3c[nH]c4c(P(C)(C)=O)cccc34)n2)CN1 (single isomer, unassigned) [Compound 92, (3-(2-((3,3-dimethyl-1,4-oxazepan-6-yl)amino)-5-(trifluoromethyl)pyrimidin-4-yl)-1H-indole-7-yl)dimethylphosphine oxide] | < 20 nM | 5 to 50 µM | 5 to 50 µM | 5 to 50 µM | < 20 nM |  | 20 to 200 nM |  |
| CP(C)(=O)c1cccc2c(-c3nc(NC4CCC5(CCNC5)C4)ncc3C(F)(F)F)c[nH]c12 (single isomer, unassigned) [Compound 98] | < 20 nM | 0.2 to 5 µM | 5 to 50 µM | 5 to 50 µM |  | < 20 nM |  | < 20 nM |
| CP(C)(=O)c1cccc2c(-c3nc(NC4CCC5(CCNC5)C4)ncc3C(F)(F)F)c[nH]c12 (single isomer, unassigned) [Compound 100] | < 20 nM | 0.2 to 5 µM | 5 to 50 µM | 0.2 to 5 µM | < 20 nM |  | < 20 nM |  |
| CP(C)(=O)c1cccc2c(-c3nc(NC4CC45CCNC5)ncc3C(F)(F)F)c[nH]c12 (single isomer, unassigned) [Compound 108] | < 20 nM | 0.2 to 5 µM | 5 to 50 µM | 0.2 to 5 µM |  | < 20 nM |  | < 20 nM |
| CP(C)(=O)c1cccc2c(-c3nc(NC4CC45CCNC5)ncc3C(F)(F)F)c[nH]c12 (single isomer, unassigned) [Compound 109] | 20 to 200 nM | 5 to 50 µM | > 50 µM | > 50 µM | 20 to 200 nM |  | 20 to 200 nM |  |
